Source: ChEMBL document CHEMBL1201862, “PubChem BioAssay data set” (2004)
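Cultured in 96-well plates, cells were exposed to test compound for 48 hours across five concentrations. GI50: concentration for 50% inhibition of growth.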 Active and inactive are the calls of the source. Cut-off read from the data, not from the text of the source: active = GI50 up to about 1.1 µM and inactive = higher.

Tests used:
Assay in all cases: NCI-60 cell line screen, 48 h
NCI/ADR-RES = system: NCI/ADR-RES
Malme-3M = system: Malme-3M
NCI-H522 = system: NCI-H522
NCI-H226 = system: NCI-H226
HT-29 = system: HT-29
MCF7 = system: MCF7
LXFL 529 = system: LXFL 529
KM12 = system: KM12
SK-OV-3 = system: SK-OV-3
SF-539 = system: SF-539
SF-295 = system: SF-295
OVCAR-3 = system: OVCAR-3
CAKI-1 = system: CAKI-1
M19-MEL = system: M19-MEL
HOP-18 = system: HOP-18
DMS-114 = system: DMS-114
KM-20L2 = system: KM-20L2
HOP-62 = system: HOP-62
SK-MEL-2 = system: SK-MEL-2
COLO 205 = system: COLO 205
BT-549 = system: BT-549
MDA-N = system: MDA-N
XF498 = system: XF498
RXF 393 = system: RXF 393
HCC 2998 = system: HCC 2998
CCRF-CEM = system: CCRF-CEM
IGROV-1 = system: IGROV-1
SNB-75 = system: SNB-75
UACC-62 = system: UACC-62
SW-620 = system: SW-620
PC-3 = system: PC-3
U-251 = system: U-251
MDA-MB-435 = system: MDA-MB-435
LOX IMVI = system: LOX IMVI
SK-MEL-28 = system: SK-MEL-28
DMS-273 = system: DMS-273
786-0 = system: 786-0
NCI-H460 = system: NCI-H460
SK-MEL-5 = system: SK-MEL-5
A498 = system: A498
HL-60 = system: HL-60
NCI-H23 = system: NCI-H23
RXF 631 = system: RXF 631
OVCAR-5 = system: OVCAR-5
EKVX = system: EKVX
HCT-116 = system: HCT-116
OVCAR-8 = system: OVCAR-8
MOLT-4 = system: MOLT-4
TK-10 = system: TK-10
SNB-78 = system: SNB-78
SF-268 = system: SF-268
UO-31 = system: UO-31
DU-145 = system: DU-145
ACHN = system: ACHN
SN12C = system: SN12C
K562 = system: K562
OVCAR-4 = system: OVCAR-4
HOP-92 = system: HOP-92
HCT-15 = system: HCT-15
UACC-257 = system: UACC-257
SNB-19 = system: SNB-19
M14 = system: M14
SR = system: SR
RPMI-8226 = system: RPMI-8226
A549 = system: A549
DLD-1 = system: DLD-1

`COc1cc(C2c3cc4c(cc3[C@@H](Nc3ccc([N+](=O)[O-])cc3)C3COC(=O)[C@H]23)OCO4)cc(OC)c1O` (stereo not given in full) was tested, and the GI50 (NCI/ADR-RES) was 3.39 µM (inactive), the GI50 (Malme-3M) was 2.01 µM (inactive) and the GI50 (NCI-H522) was 1.63 µM (inactive). For the same compound, the GI50 (NCI-H226) was 0.67 µM (active), the GI50 (HT-29) was 2.64 µM (inactive) and the GI50 (MCF7) was 0.615 µM (active). For the same compound, the GI50 (LXFL 529) was 6.4 µM (inactive), the GI50 (KM12) was 2.56 µM (inactive) and the GI50 (SK-OV-3) was 1.54 µM (inactive). The GI50 (SF-539) was 0.92 µM (active), the GI50 (SF-295) was 0.466 µM (active) and the GI50 (OVCAR-3) was 4.57 µM (inactive). For the same compound, the GI50 (CAKI-1) was 0.438 µM (active), the GI50 (M19-MEL) was 3.06 µM (inactive) and the GI50 (HOP-18) was 11.2 µM (inactive). The GI50 (DMS-114) was 1.52 µM (inactive), the GI50 (KM-20L2) was 2.12 µM (inactive) and the GI50 (HOP-62) was 0.321 µM (active). For the same compound, the GI50 (SK-MEL-2) was 4.26 µM (inactive), the GI50 (COLO 205) was 3.79 µM (inactive) and the GI50 (BT-549) was 2.3 µM (inactive). The GI50 (MDA-N) was 4.09 µM (inactive), the GI50 (XF498) was 2.07 µM (inactive) and the GI50 (RXF 393) was 2.02 µM (inactive). The GI50 (HCC 2998) was 2.99 µM (inactive), the GI50 (CCRF-CEM) was 0.198 µM (active) and the GI50 (IGROV-1) was 4.72 µM (inactive). The GI50 (SNB-75) was 1.19 µM (inactive), the GI50 (UACC-62) was 0.971 µM (active) and the GI50 (SW-620) was 1.5 µM (inactive). The GI50 (PC-3) was 2.16 µM (inactive), the GI50 (U-251) was 0.631 µM (active) and the GI50 (MDA-MB-435) was 6.11 µM (inactive). The GI50 (LOX IMVI) was 0.459 µM (active), the GI50 (SK-MEL-28) was 3.84 µM (inactive) and the GI50 (DMS-273) was 0.555 µM (active). The GI50 (786-0) was 0.652 µM (active), the GI50 (NCI-H460) was 0.0286 µM (active) and the GI50 (SK-MEL-5) was 0.586 µM (active). The GI50 (A498) was 0.676 µM (active), the GI50 (HL-60) was 0.263 µM (active) and the GI50 (NCI-H23) was 0.569 µM (active). For the same compound, the GI50 (RXF 631) was 1.6 µM (inactive), the GI50 (OVCAR-5) was 2.69 µM (inactive) and the GI50 (EKVX) was 3.37 µM (inactive). For the same compound, the GI50 (HCT-116) was 2.27 µM (inactive), the GI50 (OVCAR-8) was 1.83 µM (inactive) and the GI50 (MOLT-4) was 0.0171 µM (active). For the same compound, the GI50 (TK-10) was 2.41 µM (inactive), the GI50 (SNB-78) was 5.68 µM (inactive) and the GI50 (SF-268) was 2.01 µM (inactive). For the same compound, the GI50 (UO-31) was 1.52 µM (inactive), the GI50 (DU-145) was 0.362 µM (active) and the GI50 (ACHN) was 0.25 µM (active). For the same compound, the GI50 (SN12C) was 0.853 µM (active), the GI50 (K562) was 2.44 µM (inactive) and the GI50 (OVCAR-4) was 12.2 µM (inactive). The GI50 (HOP-92) was 1.78 µM (inactive), the GI50 (HCT-15) was 2.87 µM and the GI50 (UACC-257) was 4.65 µM (inactive). For the same compound, the GI50 (SNB-19) was 0.778 µM (active), the GI50 (M14) was 1.33 µM (inactive) and the GI50 (SR) was 0.0552 µM (active). For the same compound, the GI50 (RPMI-8226) was 0.525 µM (active).

`O=c1c2ccccc2nc(-c2ccccc2)n1NC1OC(CO)C(O)C(O)C1O` (stereo not given) was tested, and the GI50 (Malme-3M) was > 100 µM (inactive), the GI50 (A549) was > 100 µM (inactive) and the GI50 (NCI-H522) was > 100 µM (inactive). The GI50 (NCI-H226) was > 100 µM (inactive), the GI50 (HT-29) was > 100 µM (inactive) and the GI50 (LXFL 529) was > 100 µM (inactive). For the same compound, the GI50 (KM12) was > 100 µM (inactive), the GI50 (SK-OV-3) was > 100 µM (inactive) and the GI50 (SF-539) was > 100 µM (inactive). The GI50 (SF-295) was > 100 µM (inactive), the GI50 (OVCAR-3) was > 100 µM (inactive) and the GI50 (CAKI-1) was > 100 µM (inactive). For the same compound, the GI50 (M19-MEL) was > 100 µM (inactive), the GI50 (HOP-18) was 1.46 µM (inactive) and the GI50 (DMS-114) was > 100 µM (inactive). For the same compound, the GI50 (KM-20L2) was > 100 µM (inactive), the GI50 (HOP-62) was > 100 µM (inactive) and the GI50 (SK-MEL-2) was > 100 µM (inactive). The GI50 (COLO 205) was > 100 µM (inactive), the GI50 (XF498) was > 100 µM (inactive) and the GI50 (HCC 2998) was > 100 µM (inactive). For the same compound, the GI50 (CCRF-CEM) was > 100 µM (inactive), the GI50 (IGROV-1) was > 100 µM (inactive) and the GI50 (SNB-75) was 85.3 µM (inactive). For the same compound, the GI50 (UACC-62) was > 100 µM (inactive), the GI50 (SW-620) was > 100 µM (inactive) and the GI50 (DLD-1) was > 100 µM (inactive). For the same compound, the GI50 (U-251) was > 100 µM (inactive), the GI50 (SK-MEL-28) was > 100 µM (inactive) and the GI50 (DMS-273) was > 100 µM (inactive). For the same compound, the GI50 (786-0) was > 100 µM (inactive), the GI50 (NCI-H460) was > 100 µM (inactive) and the GI50 (SK-MEL-5) was > 100 µM (inactive). The GI50 (A498) was > 100 µM (inactive), the GI50 (HL-60) was > 100 µM (inactive) and the GI50 (NCI-H23) was > 100 µM (inactive). For the same compound, the GI50 (RXF 631) was > 100 µM (inactive), the GI50 (OVCAR-5) was > 100 µM (inactive) and the GI50 (EKVX) was > 100 µM (inactive). For the same compound, the GI50 (HCT-116) was > 100 µM (inactive), the GI50 (OVCAR-8) was > 100 µM (inactive) and the GI50 (MOLT-4) was > 100 µM (inactive). The GI50 (TK-10) was > 100 µM (inactive), the GI50 (SNB-78) was > 100 µM (inactive) and the GI50 (SF-268) was > 100 µM (inactive). For the same compound, the GI50 (UO-31) was > 100 µM (inactive), the GI50 (ACHN) was > 100 µM (inactive) and the GI50 (SN12C) was > 100 µM (inactive). For the same compound, the GI50 (K562) was > 100 µM (inactive), the GI50 (OVCAR-4) was > 100 µM (inactive) and the GI50 (HOP-92) was > 100 µM (inactive). For the same compound, the GI50 (HCT-15) was greater than 100 µM, the GI50 (UACC-257) was > 100 µM (inactive) and the GI50 (SNB-19) was > 100 µM (inactive). For the same compound, the GI50 (M14) was > 100 µM (inactive) and the GI50 (RPMI-8226) was > 100 µM (inactive).
